Data published in PubChem BioAssay (NCI).
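Values below derive from 48-hour exposures of cells grown in 96-well plates, with endpoints linearly interpolated between the two concentrations bracketing the appropriate inhibition level. TGI: total growth inhibition.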

What was measured:
Assay in all cases: growth of human tumour cells (NCI), 48 h
786-0 renal = test system: 786-0 renal
A498 renal = test system: A498 renal
A549 NSCLC = test system: A549 NSCLC
ACHN renal = test system: ACHN renal
BT-549 breast = test system: BT-549 breast
CAKI-1 renal = test system: CAKI-1 renal
CCRF-CEM leukemia = test system: CCRF-CEM leukemia
COLO 205 colon = test system: COLO 205 colon
DU-145 prostate = test system: DU-145 prostate
EKVX NSCLC = test system: EKVX NSCLC
HCC-2998 colon = test system: HCC-2998 colon
HCT-116 colon = test system: HCT-116 colon
HCT-15 colon = test system: HCT-15 colon
HL-60(TB) leukemia = test system: HL-60(TB) leukemia
HOP-62 NSCLC = test system: HOP-62 NSCLC
HOP-92 NSCLC = test system: HOP-92 NSCLC
HS 578T breast = test system: HS 578T breast
HT29 colon = test system: HT29 colon
IGROV1 ovarian = test system: IGROV1 ovarian
K-562 leukemia = test system: K-562 leukemia
KM12 colon = test system: KM12 colon
LOX IMVI melanoma = test system: LOX IMVI melanoma
M14 melanoma = test system: M14 melanoma
MALME-3M melanoma = test system: MALME-3M melanoma
MCF7 breast = test system: MCF7 breast
MDA-MB-231 breast = test system: MDA-MB-231 breast
MDA-MB-435 = test system: MDA-MB-435
MDA-N = test system: MDA-N
NCI-H226 lung = test system: NCI-H226 lung
NCI-H23 lung = test system: NCI-H23 lung
NCI-H460 lung = test system: NCI-H460 lung
NCI-H522 lung = test system: NCI-H522 lung
NCI/ADR-RES ovarian = test system: NCI/ADR-RES ovarian
OVCAR-3 ovarian = test system: OVCAR-3 ovarian
OVCAR-4 ovarian = test system: OVCAR-4 ovarian
OVCAR-5 ovarian = test system: OVCAR-5 ovarian
OVCAR-8 ovarian = test system: OVCAR-8 ovarian
PC-3 prostate = test system: PC-3 prostate
RPMI-8226 leukemia = test system: RPMI-8226 leukemia
RXF 393 renal = test system: RXF 393 renal
SF-268 CNS = test system: SF-268 CNS
SF-295 CNS = test system: SF-295 CNS
SF-539 CNS = test system: SF-539 CNS
SK-MEL-2 melanoma = test system: SK-MEL-2 melanoma
SK-MEL-28 melanoma = test system: SK-MEL-28 melanoma
SK-MEL-5 melanoma = test system: SK-MEL-5 melanoma
SK-OV-3 ovarian = test system: SK-OV-3 ovarian
SN12C renal = test system: SN12C renal
SNB-19 CNS = test system: SNB-19 CNS
SNB-75 CNS = test system: SNB-75 CNS
SR leukemia = test system: SR leukemia
SW-620 colon = test system: SW-620 colon
T-47D breast = test system: T-47D breast
TK-10 renal = test system: TK-10 renal
U251 CNS = test system: U251 CNS
UACC-257 melanoma = test system: UACC-257 melanoma
UACC-62 melanoma = test system: UACC-62 melanoma
UO-31 renal = test system: UO-31 renal

Structure (SMILES): CC1OC(OC2C[C@](O)(C(=O)CBr)Cc3c(O)c4c(c(O)c32)C(=O)c2ccccc2C4=O)C(F)C(O)C1O (stereo partly drawn)
- TGI (786-0 renal): > 59.5 µM
- TGI (A498 renal): 30.9 µM
- TGI (A549 NSCLC): 30 µM
- TGI (ACHN renal): 7.08 µM
- TGI (BT-549 breast): > 100 µM
- TGI (CAKI-1 renal): 49 µM
- TGI (CCRF-CEM leukemia): 3.04 µM
- TGI (COLO 205 colon): 28.8 µM
- TGI (DU-145 prostate): 63.2 µM
- TGI (EKVX NSCLC): > 100 µM
- TGI (HCC-2998 colon): > 100 µM
- TGI (HCT-116 colon): > 68 µM
- TGI (HCT-15 colon): 21.6 µM
- TGI (HL-60(TB) leukemia): 3.22 µM
- TGI (HOP-62 NSCLC): 66 µM
- TGI (HOP-92 NSCLC): 40.6 µM
- TGI (HS 578T breast): > 73.4 µM
- TGI (HT29 colon): > 56.1 µM
- TGI (IGROV1 ovarian): 60.9 µM
- TGI (K-562 leukemia): > 38.8 µM
- TGI (KM12 colon): > 84.1 µM
- TGI (LOX IMVI melanoma): 35.8 µM
- TGI (M14 melanoma): 26.1 µM
- TGI (MALME-3M melanoma): 16.5 µM
- TGI (MCF7 breast): > 100 µM
- TGI (MDA-MB-231 breast): 25.2 µM
- TGI (MDA-MB-435): 31.2 µM
- TGI (MDA-N): 44.7 µM
- TGI (NCI-H226 lung): 36.4 µM
- TGI (NCI-H23 lung): 36.2 µM
- TGI (NCI-H460 lung): 48.6 µM
- TGI (NCI-H522 lung): 23.5 µM
- TGI (NCI/ADR-RES ovarian): > 67.7 µM
- TGI (OVCAR-3 ovarian): 42.9 µM
- TGI (OVCAR-4 ovarian): 97.9 µM
- TGI (OVCAR-5 ovarian): > 59.7 µM
- TGI (OVCAR-8 ovarian): > 100 µM
- TGI (PC-3 prostate): > 68.2 µM
- TGI (RPMI-8226 leukemia): 17.7 µM
- TGI (RXF 393 renal): 35.6 µM
- TGI (SF-268 CNS): 73.7 µM
- TGI (SF-295 CNS): 27.5 µM
- TGI (SF-539 CNS): 30.4 µM
- TGI (SK-MEL-2 melanoma): 79.5 µM
- TGI (SK-MEL-28 melanoma): > 66.1 µM
- TGI (SK-MEL-5 melanoma): 24.4 µM
- TGI (SK-OV-3 ovarian): > 100 µM
- TGI (SN12C renal): > 73.3 µM
- TGI (SNB-19 CNS): > 70.5 µM
- TGI (SNB-75 CNS): 56.2 µM
- TGI (SR leukemia): 3.79 µM
- TGI (SW-620 colon): > 45.8 µM
- TGI (T-47D breast): > 82 µM
- TGI (TK-10 renal): > 87.4 µM
- TGI (U251 CNS): > 74.7 µM
- TGI (UACC-257 melanoma): 39.6 µM
- TGI (UACC-62 melanoma): 34.5 µM
- TGI (UO-31 renal): 8.9 µM
